Measured values as given in patent publication US10556943B2, “HLA-DR binding peptides and their uses” (priority 2007, dated 2020).

Tests used:
[1] = target: T1, purified HLA DRB1*0901 (Homo sapiens, UniProt P01903+P01911, A100R/A103E/D57H/D86V/F55Y/F60I/F76Y/I96F/K127E/L162R/M171V/P40D/Q125H/Q99R/R33Q/R42F/S133A/S66N/T210M/V115G/W38K/Y107V/Y59G/Y89S); experiment: HLA-DR radioligand binding inhibition assay, DRB1*0901
T1 construct: MHC molecules utilized were purified from EBV transformed homozygous cell lines or single MHC allele transfected 721.221, C1R, or fibroblast lines; made in house; host or cells: EBV transformed homozygous cell lines or single MHC allele transfected 721.221, C1R, or fibroblast lines
Description: (§1) Fifteen distinct HLA-DR molecules were used in quantitative assays to measure the binding of peptides to solubilized HLA-DR molecules. […] Briefly, columns of inactivated Sepharose CL4B and Protein A Sepharose were used as pre-columns. HLA-DR molecules were captured by passage of lysates over LB3.1 monoclonal antibody (anti-HLA-DRA) columns. Antibody columns were washed with 10 mM Tris-HCL, pH8.0 with 1% (v/v) NP-40, followed by PBS containing 0.4% (w/v) n-octylglucoside.
(§2) Briefly, 1-10 nM of radiolabeled peptide was co-incubated for 2 days at either room temperature or 37° C. with 1 μM to 1 nM purified HLA-DR molecules in the presence of a cocktail of protease inhibitors. Assays were performed at various pH conditions, ranging from pH 4 to pH 7. […] After incubation, the percentage of HLA-DR-bound radioactivity is determined by capturing HLA-DR/peptide complexes on Optiplates (Packard Instruments, Meriden, Conn.) coated with the LB3.1 antibody and determining bound counts per minute using the TopCount microscintillation counter (Packard Instruments).

[2] = target: T2, purified HLA DRB1*1201 (Homo sapiens, UniProt P01903+P01911, A100R/A169T/D57E/D86V/F55L/H45Y/K41T/L162R/M171V/P40S/Q125H/Q178H/Q39Y/Q99D/R42G/S66L/T262R/V114A/V67L/W38E/Y59H/Y61H/Y89S); experiment: HLA-DR radioligand binding inhibition assay, DRB1*1201; settings: column 5 of second part of Table I
T2 construct: MHC molecules utilized were purified from EBV transformed homozygous cell lines or single MHC allele transfected 721.221, C1R, or fibroblast lines; made in house; host or cells: EBV transformed homozygous cell lines or single MHC allele transfected 721.221, C1R, or fibroblast lines
Description: as §1, with “n-octylglucoside. […] The pH was reduced to 8.0 and the eluates were concentrated by centrifugation in Centriprep 30 concentrators at 2000 rpm (Amicon, Beverly, Mass.).” for “n-octylglucoside.”
as §2, with “Instruments). […] Competitor peptides are tested in 2-4 complete, independent experiments, at concentrations ranging from 30 μg/mL to 300 pg/mL.” for “Instruments).”

[3] = target: T3, purified HLA DRB1*1302 (Homo sapiens, UniProt P01903+P01911, A100E/A169T/K41T/L162R/M171V/P40S/Q125H/Q178H/Q39Y/Q99D/R42S/S66N/T262R/V115G/W38E/Y61H); experiment: HLA-DR radioligand binding inhibition assay, DRB1*1302; settings: column 6 of second part of Table I
T3 construct: MHC molecules utilized were purified from EBV transformed homozygous cell lines or single MHC allele transfected 721.221, C1R, or fibroblast lines; made in house; host or cells: EBV transformed homozygous cell lines or single MHC allele transfected 721.221, C1R, or fibroblast lines
T3 sequence (P01903 26-254, other chains not shown): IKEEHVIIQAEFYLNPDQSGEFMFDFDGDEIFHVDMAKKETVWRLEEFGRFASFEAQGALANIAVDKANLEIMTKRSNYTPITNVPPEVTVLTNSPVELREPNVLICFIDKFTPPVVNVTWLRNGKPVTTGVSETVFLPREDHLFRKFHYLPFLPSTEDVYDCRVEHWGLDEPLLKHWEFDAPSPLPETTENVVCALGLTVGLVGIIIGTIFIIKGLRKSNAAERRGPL
Description: as §1, §2

Measured: IC50

CSCC[C@H](NC(=O)[C@H](CCCNC(=N)N)NC(=O)[C@H](CO)NC(=O)[C@H](Cc1ccccc1)NC(=O)[C@H](CCC(=O)O)NC(=O)[C@H](CO)NC(=O)[C@@H](NC(=O)[C@H](CC(C)C)NC(=O)[C@H](CCC(=O)O)NC(=O)[C@H](CCCNC(=N)N)NC(=O)[C@@H](N)Cc1ccccc1)C(C)C)C(=O)N[C@@H](C)C(=O)N[C@@H](CCCNC(=N)N)C(=O)N[C@@H](CC(=O)O)C(=O)N1CCC[C@H]1C(=O)O [Peptide 9019.0096]
> 20 µM: all assays above
